Results published in patent US9434711B2 (Janssen Pharmaceutica, NV, priority 2007, dated 2016).

Molecular target: canine TRPM8 (Canis lupus familiaris, UniProt Q1A7N1)
Assay: In Vitro Canine TRPM8 Functional Assay (Ca2+ fluorescence, icilin activation)
Type: cell-based
Details: for IC50: HEK293 cells stably expressing canine TRPM8, icilin activation, eight-point dose-response, read-out: IC50; for inhibition at 0.2 µM: read-out: % Inh @ 0.2
Procedure, shortened: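 Eight-point dose-response curves, each point averaging quadruplicate wells, gave EC50 or IC50. Canine TRPM8-expressing HEK293 cells, dye-loaded (Calcium 3), were pre-exposed 5 min to compound, then challenged with icilin at roughly EC80; intracellular Ca2+ read by FLIPR or FDSS fluorescence.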

[1] = compound at 0.2 μM, canine TRPM8, icilin activation

Chain of canine TRPM8 (Q1A7N1 1-1104): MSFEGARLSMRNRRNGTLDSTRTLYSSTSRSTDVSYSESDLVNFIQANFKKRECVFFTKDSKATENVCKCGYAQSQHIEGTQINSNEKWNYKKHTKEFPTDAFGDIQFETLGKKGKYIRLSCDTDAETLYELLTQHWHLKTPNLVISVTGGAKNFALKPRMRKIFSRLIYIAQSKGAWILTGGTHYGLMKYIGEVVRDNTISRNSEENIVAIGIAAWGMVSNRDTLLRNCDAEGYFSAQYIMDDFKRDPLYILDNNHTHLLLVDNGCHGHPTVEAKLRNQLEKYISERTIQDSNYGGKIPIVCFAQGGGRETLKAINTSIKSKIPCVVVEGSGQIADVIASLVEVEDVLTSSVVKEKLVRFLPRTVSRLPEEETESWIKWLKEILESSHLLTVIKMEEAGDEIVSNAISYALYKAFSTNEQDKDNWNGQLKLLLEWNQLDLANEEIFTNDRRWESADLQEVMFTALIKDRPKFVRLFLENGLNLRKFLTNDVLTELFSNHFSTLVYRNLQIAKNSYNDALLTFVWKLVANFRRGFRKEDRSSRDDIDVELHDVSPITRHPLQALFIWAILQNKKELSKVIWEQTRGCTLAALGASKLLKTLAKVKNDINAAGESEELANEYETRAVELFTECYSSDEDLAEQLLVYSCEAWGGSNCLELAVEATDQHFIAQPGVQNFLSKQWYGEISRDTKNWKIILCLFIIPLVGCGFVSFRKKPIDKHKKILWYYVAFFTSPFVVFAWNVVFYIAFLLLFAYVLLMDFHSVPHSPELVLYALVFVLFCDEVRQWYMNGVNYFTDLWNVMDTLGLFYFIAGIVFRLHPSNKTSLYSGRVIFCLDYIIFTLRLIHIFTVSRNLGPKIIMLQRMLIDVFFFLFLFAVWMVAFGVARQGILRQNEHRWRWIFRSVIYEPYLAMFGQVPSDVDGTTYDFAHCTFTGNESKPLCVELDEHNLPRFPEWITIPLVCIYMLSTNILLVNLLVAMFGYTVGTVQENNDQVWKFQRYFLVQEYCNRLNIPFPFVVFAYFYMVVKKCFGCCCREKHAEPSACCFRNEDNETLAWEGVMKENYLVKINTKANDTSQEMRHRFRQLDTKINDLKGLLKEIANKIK

SMILES	IC50 [nM]	inhibition at 0.2 µM [1] [%]	% Inh @ 0.2 (μM) [1] [%]
COC(=O)CS(=O)(=O)N(Cc1ccc(OC(F)(F)F)cc1)c1sc2ccccc2c1C [Compound 761, N-(3-Methyl-benzo[b]thiophen-2-yl)-N-(4-trifluoromethoxy-benzyl)-carbomethoxy-methanesulfonamide]	40	79	
Cc1c(N(Cc2cccc(OC(F)(F)F)c2)S(=O)(=O)CCC(C)(C)O)sc2ccccc12 [Compound 763, N-(3-Methyl-benzo[b]thiophen-2-yl)-N-(3-trifluoromethoxy-benzyl)-3-hydroxy-3-methyl-butane-1-sulfonamide]	27.7	102	
Cc1c(N(Cc2cccc(OC(F)(F)F)c2)S(=O)(=O)CCCO)sc2ccccc12 [Compound 764, N-(3-Methyl-benzo[b]thiophen-2-yl)-N-(3-trifluoromethoxy-benzyl)-3-hydroxy-propanesulfonamide]	22.1	101	
COc1cc(NS(C)(=O)=O)c(Cl)cc1S(=O)(=O)N(Cc1ccc(F)c(C(F)(F)F)c1)c1sc2ccccc2c1Cl [Compound 766, 5-Chloro-N-(3-chloro-benzo[b]thiophen-2-yl)-N-(4-fluoro-3-trifluoromethyl-benzyl)-4-methanesulfonylamino-2-methoxy-benzenesulfonamide]	7.8	101	
Cc1c(N(Cc2ccc(F)c(C(F)(F)F)c2)S(=O)(=O)c2ccc3c(c2)CN(C)CC3)sc2ccccc12 [Compound 767, 2-Methyl-N-(4-fluoro-3-trifluoromethyl-benzyl)-N-(3-methyl-benzo[b]thiophen-2-yl)-1,2,3,4-tetrahydroisoquinolin-7-yl-sulfonamide]	89.2	77	
Cc1c(N(Cc2cccc(OC(F)(F)F)c2)S(=O)(=O)CCCBr)sc2ccccc12 [Compound 769, N-(3-Methyl-benzo[b]thiophen-2-yl)-N-(3-trifluoromethoxy-benzyl)-3-bromo-propane-1-sulfonamide]	44	85	
Cc1c(N(Cc2ccc(F)c(C(F)(F)F)c2)S(=O)(=O)CCCCBr)sc2ccccc12 [Compound 771, N-(4-Fluoro-3-trifluoromethyl-benzyl)-N-(3-methyl-benzo[b]thiophen-2-yl)-4-bromo-butane-1-sulfonamide]	7.2	96	
CC(=O)c1c(N(Cc2ccc(OC(F)(F)F)cc2)S(=O)(=O)c2ccc(C#N)cc2)sc2ccccc12 [Compound 772, N-(3-Acetyl-benzo[b]thiophen-2-yl)-N-(4-trifluoromethoxy-benzyl)-4-cyano-benzenesulfonamide]	5.7	95	
Cc1c(N(Cc2ccc(F)c(C(F)(F)F)c2)S(=O)(=O)c2ccc(C(=O)O)c(F)c2)sc2ccccc12 [Compound 775, N-(3-Methyl-benzo[b]thiophen-2-yl)-N-(4-fluoro-3-trifluoromethyl-benzyl)-3-fluoro-4-carboxy-benzenesulfonamide]	1.6	95	
CCS(=O)(=O)N(Cc1cccc(OC)c1F)c1sc2ccccc2c1C(C)(C)O [Compound 776, N-(2-Fluoro-3-methoxy-benzyl)-N-[3-(1-hydroxy-1-methyl-ethyl)-benzo[b]thiophen-2-yl]-ethanesulfonamide]	6.7	95	
Cc1c(N(Cc2cccc(OC(F)(F)F)c2)S(=O)(=O)CCCn2ccnc2)sc2ccccc12 [Compound 778, N-(3-Methyl-benzo[b]thiophen-2-yl)-N-(3-trifluoromethoxy-benzyl)-3-imidazol-1-yl-propane-1-sulfonamide]	107	87	
CS(=O)(=O)Nc1ccc(S(=O)(=O)N(Cc2ccc(F)c(C(F)(F)F)c2)c2sc3ccccc3c2Cl)c(O)c1 [Compound 780, N-(3-Chloro-benzo[b]thiophen-2-yl)-N-(4-fluoro-3-trifluoromethyl-benzyl)-2-hydroxy-4-methanesulfonylamino-benzenesulfonamide]	145	72	
CC(C)(O)c1c(N(Cc2ccc(OC(F)(F)F)cc2)S(=O)(=O)c2ccc(C(=O)[O-])cc2)sc2ccccc12.[Na+] [Compound 781, Sodium, N-(3-(1-Hydroxy-1-methyl-ethyl)-benzo[b]thiophen-2-yl)-N-(4-trifluoromethoxy)benzyl-4-carboxy-benzenesulfonamide]	3		102
Cc1c(N(CCC2CC2)S(=O)(=O)c2ccc(C(=O)N[C@H]3CCNC3)cc2)sc2ccccc12 [Compound 782, (S)-4-[(2-Cyclopropyl-ethyl)-(3-methyl-benzo[b]thiophen-2-yl)-sulfamoyl]-N-pyrrolidin-3-yl-benzamide]		33	

More lines, main results first:

IC50 [nM]	inhibition at 0.2 µM [1] [%]	SMILES	% Inh @ 0.2 (μM) [1] [%]
25.3	101	Cc1c(N(Cc2cccc(OC(F)(F)F)c2)S(=O)(=O)CCC(=O)O)sc2ccccc12 [Compound 762, N-(3-Methyl-benzo[b]thiophen-2-yl)-N-(3-trifluoromethoxy-benzyl)-2-carboxy-ethanesulfonamide]	
13.6	101	Cc1c(N(Cc2ccc(F)c(C(F)(F)F)c2)S(=O)(=O)CCCC(=O)O)sc2ccccc12 [Compound 765, N-(4-Fluoro-3-trifluoromethyl-benzyl)-N-(3-methyl-benzo[b]thiophen-2-yl)-3-carboxy-propanesulfonamide]	
18.8	93	C=C(C)c1c(N(Cc2cc(OC)c(Cl)cc2F)S(=O)(=O)CC)sc2ccccc12 [Compound 768, N-(4-Chloro-2-fluoro-5-methoxy-benzyl)-N-(3-isopropenyl-benzo[b]thiophen-2-yl)-ethanesulfonamide]	
7.2	95	Cc1c(N(Cc2cccc(OC(F)(F)F)c2)S(=O)(=O)C2CC2)sc2ccccc12 [Compound 770, N-(3-Methyl-benzo[b]thiophen-2-yl)-N-(3-trifluoromethoxy-benzyl)-cyclopropanesulfonamide]	
16.7	94	CC(=O)c1c(N(CCCCC(F)(F)F)S(=O)(=O)c2ccc(C#N)cc2)sc2ccccc12 [Compound 773, N-(3-Acetyl-benzo[b]thiophen-2-yl)-N-(5,5,5-trifluoro-pentyl)-4-cyano-benzenesulfonamide]	
1.3	95	Cc1c(N(Cc2ccc(OC(F)(F)F)cc2)S(=O)(=O)c2ccc(C(=O)O)c(F)c2)sc2ccccc12 [Compound 774, N-(3-Methyl-benzo[b]thiophen-2-yl)-N-(4-trifluoromethoxy-benzyl)-3-fluoro-4-carboxy-benzenesulfonamide]	
	56	Cc1c(N(CCC2CC2)S(=O)(=O)c2ccc(C(=O)N3CCN(C)CC3)cc2)sc2ccccc12 [Compound 777, N-(2-Cyclopropyl-ethyl)-N-(3-methyl-benzo[b]thiophen-2-yl)-4-(4-methyl-piperazine-1-carbonyl)-benzenesulfonamide]	
48.7	79	Cc1c(N(Cc2ccc(F)c(C(F)(F)F)c2)S(=O)(=O)CCCCn2ccnc2)sc2ccccc12 [Compound 779, N-(4-Fluoro-3-trifluoromethyl-benzyl)-N-(3-methyl-benzo[b]thiophen-2-yl)-4-(imidazol-1-yl)-butane-1-sulfonamide]	
